From the supplement of paper PMC11061612

What was measured:
[1] = test system: SW1088 (Low Grade Glioma); experiment: combination Emax (second highest fraction inhibited in the dose matrix, 72 h); higher = more inhibition; extreme values may be limits of the assay
How it was run: (§1)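 Bliss excess equals the observed combination effect minus the expected value EA + EB − EA·EB, where EA and EB are the effects of each agent alone. Combination Emax is the second-highest inhibition within the matrix. Inhibition was scaled from CellTiter-Glo 2.0 luminescence, with 0 set by vehicle wells and 1 by blank wells, after 72 hours of two-drug dosing of cells plated in 1536-well plates.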

[2] = test system: SUIT-2 (Pancreatic Carcinoma); experiment: as above
How it was run: as §1

[3] = test system: MFH-ino (Other Solid Carcinomas); experiment: as above
How it was run: as §1

NCI-H2369 (Mesothelioma) [4] = experiment: as above
How it was run: as §1

[5] = test system: OCI-AML2 (Acute Myeloid Leukemia); experiment: as above
How it was run: as §1

[6] = test system: LS-513 (Colorectal Carcinoma); experiment: as above
How it was run: as §1

[7] = test system: U-266 (Plasma Cell Myeloma); experiment: as above
How it was run: as §1

[8] = test system: NALM-6 (B-Lymphoblastic Leukemia); experiment: as above
How it was run: as §1

NCI-H2595 (Mesothelioma) = experiment: as above
How it was run: as §1

[9] = test system: SW1783 (Low Grade Glioma); experiment: Bliss excess, mean over the matrix (fraction); higher = more synergy
How it was run: as §1

[10] = test system: TE-5 (Esophageal Squamous Cell Carcinoma); experiment: as above
How it was run: as §1

[11] = test system: SUIT-2 (Pancreatic Carcinoma); experiment: as above
How it was run: as §1

[12] = test system: MDA-MB-157 (Breast Carcinoma); experiment: as above
How it was run: as §1

NCI-H2369 (Mesothelioma) [13] = experiment: as above
How it was run: as §1

[14] = test system: NCI-H1694 (Small Cell Lung Carcinoma); experiment: as above
How it was run: as §1

[15] = test system: DMS-273 (Small Cell Lung Carcinoma); experiment: as above
How it was run: as §1

[16] = test system: JiyoyeP-2003 (Burkitt's Lymphoma); experiment: as above
How it was run: as §1

[17] = test system: LS-513 (Colorectal Carcinoma); experiment: as above
How it was run: as §1

[18] = test system: NALM-6 (B-Lymphoblastic Leukemia); experiment: as above
How it was run: as §1

[19] = test system: IHH-4 (Thyroid Gland Carcinoma); experiment: as above
How it was run: as §1

| Compound | combination Emax [1] | combination Emax [2] | combination Emax [3] | combination Emax (NCI-H2369 (Mesothelioma) [4]) | combination Emax [5] | combination Emax [6] | combination Emax [7] | combination Emax [8] | combination Emax (NCI-H2595 (Mesothelioma)) | Bliss excess [9] | Bliss excess [10] | Bliss excess [11] | Bliss excess [12] | Bliss excess (NCI-H2369 (Mesothelioma) [13]) | Bliss excess [14] | Bliss excess [15] | Bliss excess [16] | Bliss excess [17] | Bliss excess [18] | Bliss excess [19] |
| --- | --- | --- | --- | --- | --- | --- | --- | --- | --- | --- | --- | --- | --- | --- | --- | --- | --- | --- | --- | --- |
| COc1nnc2ccc(N3CCC(c4ccc(OCCN5CCN(C)C(=O)[C@H]5C)cc4)CC3)nn12 [AZD5153] + C=CCn1c(=O)c2cnc(Nc3ccc(N4CCN(C)CC4)cc3)nc2n1-c1cccc(C(C)(C)O)n1 [AZD1775] (first compound max 1 µM, partner max 1 µM) | 0.513 | 0.693 | 0.473 | 0.461 | 1 | 0.728 | 0.637 | 0.951 | 0.371 | -0.0531 | -0.0148 | 0.0152 | -0.0313 | -0.0392 | -0.0205 | -0.0377 | -0.0401 | -0.0603 | -0.0559 | -0.0294 |
| COc1nnc2ccc(N3CCC(c4ccc(OCCN5CCN(C)C(=O)[C@H]5C)cc4)CC3)nn12 [AZD5153] + CC1(C)CCC(CN2CCN(c3ccc(C(=O)NS(=O)(=O)c4ccc(NCC5CCOCC5)c([N+](=O)[O-])c4)c(Oc4cnc5[nH]ccc5c4)c3)CC2)=C(c2ccc(Cl)cc2)C1 [Venetoclax] (first compound max 1 µM, 7x7, partner max 1 µM) | 0.471 | 0.371 | 0.415 | 0.327 | 1 | 0.568 | 0.272 | 0.993 | 0.375 | -0.0347 | -0.0087 | -0.0769 | -0.0454 | -0.0641 | 0.0045 | -0.0627 | -0.0302 | -0.0442 | -0.0678 | -0.0621 |
| COc1nnc2ccc(N3CCC(c4ccc(OCCN5CCN(C)C(=O)[C@H]5C)cc4)CC3)nn12 [AZD5153] + CCN(CCO)CCCOc1ccc2c(Nc3cc(CC(=O)Nc4cccc(F)c4)[nH]n3)ncnc2c1 [AZD2811] (first compound max 1 µM, 7x7, partner max 1 µM) | 0.519 | 0.436 | 0.553 | 0.344 | 1 | 0.602 | 0.279 | 0.938 | 0.465 | -0.038 | -0.0124 | -0.0399 | -0.0004 | -0.0563 | 0.0041 | -0.0409 | 0.0351 | -0.102 | -0.0683 | 0.0167 |
| COc1nnc2ccc(N3CCC(c4ccc(OCCN5CCN(C)C(=O)[C@H]5C)cc4)CC3)nn12 [AZD5153] + C[C@@H]1COCCN1C2=NC(=NC(=C2)C3(CC3)[S@](=N)(=O)C)C4=C5C=CNC5=NC=C4 [AZD6738] (first compound max 1 µM, 7x7, partner max 10 µM) | 0.645 | 0.671 | 0.547 | 0.363 | 1 | 0.755 | 0.412 | 0.958 | 0.461 | 0.0235 | -0.0316 | 0.0468 | -0.0138 | 0.0409 | 0.008 | 0.0044 | -0.047 | -0.0211 | -0.0624 | -0.0118 |
| COc1nnc2ccc(N3CCC(c4ccc(OCCN5CCN(C)C(=O)[C@H]5C)cc4)CC3)nn12 [AZD5153] + Cc1c2c(nn1C)CSCc1cc(n(C)n1)CSc1cc(c3ccccc3c1)OCCCc1c(C(=O)O)n(C)c3c-2c(Cl)ccc13 [AZD5991] (first compound max 1 µM, 7x7, partner max 1 µM) | 0.487 | 0.462 | 0.489 | 0.337 | 1 | 0.644 | 0.899 | 0.904 | 0.602 | -0.0024 | -0.0158 | -0.0318 | 0.0297 | -0.0499 | 0.0992 | -0.1 | -0.0218 | -0.0549 | -0.0732 | -0.0329 |
| COc1nnc2ccc(N3CCC(c4ccc(OCCN5CCN(C)C(=O)[C@H]5C)cc4)CC3)nn12 [AZD5153] + Cn1cnc2c(F)c(Nc3ccc(Br)cc3Cl)c(C(=O)NOCCO)cc21 [Selumetinib] (first compound max 1 µM, 7x7, partner max 10 µM) | 0.513 | 0.558 | 0.636 | 0.368 | 1 | 0.951 | 0.542 | 0.886 | 0.364 | -0.0214 | 0.0184 | 0.0227 | 0.0292 | -0.048 | -0.0641 | -0.0661 | -0.0117 | -0.0213 | 0.0085 | 0.0085 |
| Cc1c2c(nn1C)CSCc1cc(n(C)n1)CSc1cc(c3ccccc3c1)OCCCc1c(C(=O)O)n(C)c3c-2c(Cl)ccc13 [AZD5991] + C1CN(CCC1(C(=O)N[C@@H](CCO)C2=CC=C(C=C2)Cl)N)C3=NC=NC4=C3C=CN4 [Capivasertib] (first compound max 1 µM, 7x7, partner max 3 µM) | 0.527 | 0.149 | 0.248 | 0.22 | 1 | 0.344 | 0.97 | 0.694 | 0.311 | -0.0145 | 0.0141 | -0.0304 | 0.0573 | -0.012 | -0.0142 | -0.0524 | 0.0371 | -0.0343 | 0.0149 | 0.0037 |
